Converted amounts (≈) assume the structure as drawn.
How the values were obtained:
Type in all cases: functional
HOP-62 [1] = experiment: Anticancer activity against Homo sapiens (human) HOP62 cells after 48 hr by SRB assay; conditions: HOP-62, 48 h; for CC50: read-out: LC50 (the source's name)
RPMI-8226 = experiment: Anticancer activity against Homo sapiens (human) RPMI8226 cells after 48 hr by SRB assay; conditions: RPMI-8226, 48 h; for CC50: read-out: LC50 (the source's name)
K562 = experiment: Anticancer activity against Homo sapiens (human) K562 cells after 48 hr by SRB assay; conditions: K562, 48 h; for CC50: read-out: LC50 (the source's name)
HCC 2998 = experiment: Growth inhibition of Homo sapiens (human) HCC2998 cells at 10 uM after 48 hr by SRB assay; conditions: HCC 2998, 48 h, read-out: GI
NCI-H460 = experiment: Growth inhibition of Homo sapiens (human) NCI-H460 cells at 10 uM after 48 hr by SRB assay; conditions: NCI-H460, 48 h, read-out: GI
CCRF-CEM = experiment: Anticancer activity against Homo sapiens (human) CCRF-CEM cells after 48 hr by SRB assay; conditions: for CC50: read-out: LC50 (the source's name)
Hs-578T = experiment: Growth inhibition of Homo sapiens (human) Hs 578T cells at 10 uM after 48 hr by SRB assay; conditions: read-out: GI
UO-31 = experiment: Growth inhibition of Homo sapiens (human) UO31 cells at 10 uM after 48 hr by SRB assay; conditions: UO-31, 48 h, read-out: GI
U-251 [2] = experiment: Anticancer activity against Homo sapiens (human) U251 cells after 48 hr by SRB assay; conditions: U-251, 48 h; for CC50: read-out: LC50 (the source's name)
SF-268 = experiment: Anticancer activity against Homo sapiens (human) SF268 cells after 48 hr by SRB assay; conditions: SF-268, 48 h; for CC50: read-out: LC50 (the source's name)
SW-620 = experiment: Anticancer activity against Homo sapiens (human) SW620 cells after 48 hr by SRB assay; conditions: SW-620, 48 h; for CC50: read-out: LC50 (the source's name)
KM12 = experiment: Anticancer activity against Homo sapiens (human) KM12 cells after 48 hr by SRB assay; conditions: KM12, 48 h; for CC50: read-out: LC50 (the source's name)
NCI-H322M = experiment: Anticancer activity against Homo sapiens (human) NCI-H322M cells after 48 hr by SRB assay; conditions: for CC50: read-out: LC50 (the source's name)
HOP-62 [3] = experiment: Growth inhibition of Homo sapiens (human) HOP62 cells at 10 uM after 48 hr by SRB assay; conditions: HOP-62, 48 h, read-out: GI
HL-60(TB) = experiment: Growth inhibition of Homo sapiens (human) HL-60(TB) cells at 10 uM after 48 hr by SRB assay; conditions: HL-60, 48 h, read-out: GI
Staphylococcus aureus = experiment: Antimicrobial activity against Staphylococcus aureus DSM 1104 after 48 hr by two-fold serial broth dilution method; conditions: DSM 1104, 48 h
BT-549 = experiment: Anticancer activity against Homo sapiens (human) BT549 cells after 48 hr by SRB assay; conditions: BT-549, 48 h; for CC50: read-out: LC50 (the source's name)
TK-10 = experiment: Anticancer activity against Homo sapiens (human) TK10 cells after 48 hr by SRB assay; conditions: TK-10, 48 h; for CC50: read-out: LC50 (the source's name)
ACHN = experiment: Anticancer activity against Homo sapiens (human) ACHN cells after 48 hr by SRB assay; conditions: for CC50: read-out: LC50 (the source's name)
SK-OV-3 [4] = experiment: Growth inhibition of Homo sapiens (human) SKOV3 cells at 10 uM after 48 hr by SRB assay; conditions: SK-OV-3, 48 h, read-out: GI
OVCAR-8 = experiment: Growth inhibition of Homo sapiens (human) OVCAR8 cells at 10 uM after 48 hr by SRB assay; conditions: OVCAR-8, 48 h, read-out: GI
SK-OV-3 [5] = experiment: Anticancer activity against Homo sapiens (human) SKOV3 cells after 48 hr by SRB assay; conditions: SK-OV-3, 48 h
NCI/ADR-RES = experiment: Anticancer activity against Homo sapiens (human) NCI/ADR-RES cells after 48 hr by SRB assay
OVCAR-3 = experiment: Anticancer activity against Homo sapiens (human) OVCAR3 cells after 48 hr by SRB assay; conditions: OVCAR-3, 48 h
IGROV-1 = experiment: Anticancer activity against Homo sapiens (human) IGROV1 cells after 48 hr by SRB assay; conditions: IGROV-1, 48 h
UACC-62 = experiment: Anticancer activity against Homo sapiens (human) UACC62 cells after 48 hr by SRB assay; conditions: UACC-62, 48 h
SK-MEL-28 = experiment: Anticancer activity against Homo sapiens (human) SK-MEL-28 cells after 48 hr by SRB assay; conditions: SK-MEL-28, 48 h
SK-MEL-2 = experiment: Anticancer activity against Homo sapiens (human) SK-MEL-2 cells after 48 hr by SRB assay; conditions: SK-MEL-2, 48 h; for CC50: read-out: LC50 (the source's name)
M14 = experiment: Anticancer activity against Homo sapiens (human) M14 cells after 48 hr by SRB assay; conditions: M14, 48 h
U-251 [6] = experiment: Growth inhibition of Homo sapiens (human) U251 cells at 10 uM after 48 hr by SRB assay; conditions: U-251, 48 h, read-out: GI
SNB-75 = experiment: Growth inhibition of Homo sapiens (human) SNB75 cells at 10 uM after 48 hr by SRB assay; conditions: SNB-75, 48 h, read-out: GI
SF-539 = experiment: Growth inhibition of Homo sapiens (human) SF539 cells at 10 uM after 48 hr by SRB assay; conditions: SF-539, 48 h, read-out: GI
SR = experiment: Anticancer activity against Homo sapiens (human) SR cells after 48 hr by SRB assay

COc1ccc(OC)c(/C=C/C(=O)N/N=C/c2ccccc2)c1
GI50 (HOP-62 [1]): 4.95 µM | TGI (HOP-62 [1]): > 100 µM | CC50 (HOP-62 [1]): > 100 µM | GI50 (RPMI-8226): 2.99 µM | TGI (RPMI-8226): 9.96 µM | CC50 (RPMI-8226): > 100 µM | GI50 (K562): 0.488 µM | TGI (K562): > 100 µM | CC50 (K562): > 100 µM | inhibition of growth at 10 µM (HCC 2998): 33.6% | inhibition of growth at 10 µM (NCI-H460): 86.5% | GI50 (CCRF-CEM): 3.97 µM | TGI (CCRF-CEM): > 100 µM | CC50 (CCRF-CEM): > 100 µM | inhibition of growth at 10 µM (Hs-578T): 33.5% | inhibition of growth at 10 µM (UO-31): 43.4% | GI50 (U-251 [2]): 3.68 µM | TGI (U-251 [2]): > 100 µM | CC50 (U-251 [2]): > 100 µM | GI50 (SF-268): 7.56 µM | TGI (SF-268): > 100 µM | CC50 (SF-268): > 100 µM | GI50 (SW-620): 1.5 µM | TGI (SW-620): 6.23 µM | CC50 (SW-620): > 100 µM | GI50 (KM12): 0.834 µM | TGI (KM12): 3.75 µM | CC50 (KM12): 29.4 µM | GI50 (NCI-H322M): 5.22 µM | TGI (NCI-H322M): > 100 µM | CC50 (NCI-H322M): > 100 µM | inhibition of growth at 10 µM (HOP-62 [3]): 32.7% | inhibition of growth at 10 µM (HL-60(TB)): 53.6% | MBC (Staphylococcus aureus): 100 µg/mL (≈ 322 µM) | MIC (Staphylococcus aureus): 100 µg/mL (≈ 322 µM) | GI50 (BT-549): 4.05 µM | TGI (BT-549): 90.4 µM | CC50 (BT-549): > 100 µM | GI50 (TK-10): 16.6 µM | TGI (TK-10): > 100 µM | CC50 (TK-10): > 100 µM | GI50 (ACHN): 9.66 µM | TGI (ACHN): > 100 µM | CC50 (ACHN): > 100 µM | inhibition of growth at 10 µM (SK-OV-3 [4]): 40% | inhibition of growth at 10 µM (OVCAR-8): 45.2% | GI50 (SK-OV-3 [5]): 12 µM | LC50 (SK-OV-3 [5]): > 100 µM | TGI (SK-OV-3 [5]): > 100 µM | GI50 (NCI/ADR-RES): 1.46 µM | LC50 (NCI/ADR-RES): > 100 µM | TGI (NCI/ADR-RES): 4.29 µM | GI50 (OVCAR-3): 3.15 µM | LC50 (OVCAR-3): > 100 µM | TGI (OVCAR-3): > 100 µM | GI50 (IGROV-1): 1.51 µM | LC50 (50% lethal concentration) (IGROV-1): > 100 µM | TGI (IGROV-1): > 100 µM | GI50 (UACC-62): 3.55 µM | LC50 (UACC-62): > 100 µM | TGI (UACC-62): 75.8 µM | GI50 (SK-MEL-28): 8.89 µM | LC50 (concentration killing 50% of cells) (SK-MEL-28): > 100 µM | TGI (SK-MEL-28): > 100 µM | GI50 (SK-MEL-2): 2.98 µM | TGI (SK-MEL-2): 9.32 µM | CC50 (SK-MEL-2): > 100 µM | GI50 (M14): 2.16 µM | LC50 (M14): > 100 µM | TGI (M14): 6.77 µM | inhibition of growth at 10 µM (U-251 [6]): 56.5% | inhibition of growth at 10 µM (SNB-75): 58.9% | inhibition of growth at 10 µM (SF-539): 48.2%

COc1ccc(OC)c(/C=C/c2nnc(S)n2-c2ccc(Cl)cc2)c1
GI50 (HOP-62 [1]): 6.48 µM | TGI (HOP-62 [1]): > 100 µM | CC50 (HOP-62 [1]): > 100 µM | GI50 (SR): 4.56 µM | TGI (SR): > 100 µM | CC50 (SR; read-out: LC50 (the source's name)): > 100 µM | GI50 (RPMI-8226): 5.22 µM | TGI (RPMI-8226): > 100 µM | CC50 (RPMI-8226): > 100 µM | GI50 (K562): 4.95 µM | TGI (K562): > 100 µM | CC50 (K562): > 100 µM | inhibition of growth at 10 µM (HCC 2998): 54.4% | inhibition of growth at 10 µM (NCI-H460): 61.1% | GI50 (CCRF-CEM): 4.77 µM | TGI (CCRF-CEM): > 100 µM | CC50 (CCRF-CEM): > 100 µM | inhibition of growth at 10 µM (UO-31): 52.9% | GI50 (U-251 [2]): 6.88 µM | TGI (U-251 [2]): > 100 µM | CC50 (U-251 [2]): > 100 µM | GI50 (SF-268): 17.5 µM | TGI (SF-268): > 100 µM | CC50 (SF-268): > 100 µM | GI50 (SW-620): 5.09 µM | TGI (SW-620): > 100 µM | CC50 (SW-620): > 100 µM | GI50 (KM12): 4.02 µM | TGI (KM12): > 100 µM | CC50 (KM12): > 100 µM | GI50 (NCI-H322M): 26.9 µM | TGI (NCI-H322M): > 100 µM | CC50 (NCI-H322M): > 100 µM | inhibition of growth at 10 µM (HL-60(TB)): 95.7% | MBC (Staphylococcus aureus): 100 µg/mL (≈ 267 µM) | MIC (Staphylococcus aureus): 100 µg/mL (≈ 267 µM) | GI50 (BT-549): 9.38 µM | TGI (BT-549): > 100 µM | CC50 (BT-549): > 100 µM | GI50 (TK-10): 25.8 µM | TGI (TK-10): > 100 µM | CC50 (TK-10): > 100 µM | GI50 (ACHN): 23.8 µM | TGI (ACHN): > 100 µM | CC50 (ACHN): > 100 µM | GI50 (SK-OV-3 [5]): 9.4 µM | LC50 (SK-OV-3 [5]): > 100 µM | TGI (SK-OV-3 [5]): > 100 µM | GI50 (NCI/ADR-RES): 3.63 µM | LC50 (NCI/ADR-RES): > 100 µM | TGI (NCI/ADR-RES): > 100 µM | GI50 (OVCAR-3): 3.34 µM | LC50 (OVCAR-3): > 100 µM | TGI (OVCAR-3): 21.4 µM | GI50 (IGROV-1): 4.38 µM | LC50 (50% lethal concentration) (IGROV-1): > 100 µM | TGI (IGROV-1): > 100 µM | GI50 (UACC-62): 3.11 µM | LC50 (UACC-62): > 100 µM | TGI (UACC-62): > 100 µM | GI50 (SK-MEL-28): 11.1 µM | LC50 (concentration killing 50% of cells) (SK-MEL-28): > 100 µM | TGI (SK-MEL-28): > 100 µM | GI50 (SK-MEL-2): 4.05 µM | TGI (SK-MEL-2): > 100 µM | CC50 (SK-MEL-2): > 100 µM | GI50 (M14): 4.24 µM | LC50 (M14): > 100 µM | TGI (M14): > 100 µM | inhibition of growth at 10 µM (U-251 [6]): 46.7% | inhibition of growth at 10 µM (SNB-75): 57.5% | inhibition of growth at 10 µM (SF-539): 60.5%

Reference: ChEMBL document CHEMBL3046389, “Synthesis and biological evaluation of novel hydroquinone dimethyl ethers as potential anticancer and antimicrobial agents” (2013)
